Values after ≈ are worked out from the molar mass of the structure shown. Active and inactive are the calls of the source. The calls are words filed in the database; no cut-off is given here.
Experiments:
Candida tropicalis [1] = assay: Inhibition of chitin synthase extracted from Candida tropicalis ATCC 750 using UDP-GlcNAc as substrate assessed as inhibition rate at 300 ug/ml by TMB based microplate analyzer relative to control; conditions: dose 300.0 µg/ml
[2] = Inhibition of chitin synthase extracted from Candida tropicalis ATCC 750 using UDP-GlcNAc as substrate assessed as inhibition rate by TMB based microplate analyzer relative to control
Candida tropicalis [3] = assay: Non-competitive inhibition of chitin synthase extracted from Candida tropicalis ATCC 750 using UDP-GlcNAc as substrate assessed as decrease in Vm with constant Km at 0 to 0.15 mM by Lineweaver-Burk plot analysis; conditions: dose 0-0.15 mM
[4] = Non-competitive inhibition of chitin synthase extracted from Candida tropicalis ATCC 750 using UDP-GlcNAc as substrate assessed as inhibition constant by Lineweaver-Burk plot analysis
Candida albicans [5] = assay: Antifungal activity against Candida albicans ATCC 76615 assessed as inhibition of growth incubated for 24 hrs by two-fold serial dilution method; assay type: functional
Aspergillus flavus [6] = assay: Antifungal activity against Aspergillus flavus ATCC 16870 assessed as inhibition of growth incubated for 24 hrs by two-fold serial dilution method; assay type: functional
Aspergillus fumigatus [7] = assay: Antifungal activity against Aspergillus fumigatus GIMCC 3.19 assessed as inhibition of growth incubated for 24 hrs by two-fold serial dilution method; assay type: functional
Cryptococcus neoformans [8] = assay: Antifungal activity against Cryptococcus neoformans ATCC 32719 assessed as inhibition of growth incubated for 24 hrs by two-fold serial dilution method; assay type: functional
Candida albicans [9] = assay: Antifungal activity against drug-resistant Candida albicans ATCC 76615 assessed as inhibition of cell wall synthesis in presence of sorbitol incubated for 24 hrs; assay type: functional
Aspergillus flavus [10] = assay: Antifungal activity against drug-resistant Aspergillus flavus ATCC 16870 assessed as inhibition of cell wall synthesis in presence of sorbitol incubated for 24 hrs; assay type: functional
Aspergillus fumigatus [11] = assay: Antifungal activity against drug-resistant Aspergillus fumigatus GIMCC 3.19 assessed as inhibition of cell wall synthesis in presence of sorbitol incubated for 24 hrs; assay type: functional
Cryptococcus neoformans [12] = assay: Antifungal activity against drug-resistant Cryptococcus neoformans ATCC 32719 assessed as inhibition of cell wall synthesis in presence of sorbitol incubated for 24 hrs; assay type: functional
Candida albicans [13] = assay: Antifungal activity against fluconazole-resistant Candida albicans ATCC 76615 assessed as inhibition of fungal growth incubated for 24 to 72 hrs; assay type: functional; conditions: time 24-72 hrs
Aspergillus flavus [14] = assay: Antifungal activity against fluconazole-resistant Aspergillus flavus ATCC 16870 assessed as inhibition of fungal growth incubated for 24 to 72 hrs; assay type: functional; conditions: time 24-72 hrs
Aspergillus fumigatus [15] = assay: Antifungal activity against fluconazole-resistant Aspergillus fumigatus GIMCC 3.19 assessed as inhibition of fungal growth incubated for 24 to 72 hrs; assay type: functional; conditions: time 24-72 hrs
Cryptococcus neoformans [16] = assay: Antifungal activity against fluconazole-resistant Cryptococcus neoformans ATCC 32719 assessed as inhibition of fungal growth incubated for 24 to 72 hrs; assay type: functional; conditions: time 24-72 hrs
Candida albicans [17] = assay: Antifungal activity against micafungin-resistant Candida albicans ATCC 76615 assessed as inhibition of fungal growth incubated for 24 to 72 hrs; assay type: functional; conditions: time 24-72 hrs
Candida albicans [18] = assay: Antifungal activity against Candida albicans ATCC 76615 incubated for 24 hrs by half broth dilution based checkerboard method; assay type: functional
Aspergillus flavus [19] = assay: Antifungal activity against Aspergillus flavus ATCC 16870 incubated for 24 hrs by half broth dilution based checkerboard method; assay type: functional
Aspergillus fumigatus [20] = assay: Antifungal activity against Aspergillus fumigatus GIMCC 3.19 incubated for 24 hrs by half broth dilution based checkerboard method; assay type: functional
Cryptococcus neoformans [21] = assay: Antifungal activity against Cryptococcus neoformans ATCC 32719 incubated for 24 hrs by half broth dilution based checkerboard method; assay type: functional
Candida albicans [22] = assay: Antifungal activity against Candida albicans ATCC 76615 assessed as fluconazole MIC incubated for 24 hrs in presence of fluconazole by half broth dilution based checkerboard method; assay type: functional
Aspergillus flavus [23] = assay: Antifungal activity against Aspergillus flavus ATCC 16870 assessed as fluconazole MIC incubated for 24 hrs in presence of fluconazole by half broth dilution based checkerboard method; assay type: functional
Aspergillus fumigatus [24] = assay: Antifungal activity against Aspergillus fumigatus GIMCC 3.19 assessed as fluconazole MIC incubated for 24 hrs in presence of fluconazole by half broth dilution based checkerboard method; assay type: functional
Cryptococcus neoformans [25] = assay: Antifungal activity against Cryptococcus neoformans ATCC 32719 assessed as fluconazole MIC incubated for 24 hrs in presence of fluconazole by half broth dilution based checkerboard method; assay type: functional
Aspergillus fumigatus [26] = assay: Synergistic antifungal activity against Aspergillus fumigatus GIMCC 3.19 assessed as fractional inhibitory concentration index in presence of fluconazole incubated for 24 hrs by half broth dilution based checkerboard method; assay type: functional
Candida albicans [27] = assay: Synergistic antifungal activity against Candida albicans ATCC 76615 assessed as fractional inhibitory concentration index in presence of fluconazole incubated for 24 hrs by half broth dilution based checkerboard method; assay type: functional
Aspergillus flavus [28] = assay: Synergistic antifungal activity against Aspergillus flavus ATCC 16870 assessed as fractional inhibitory concentration index in presence of fluconazole incubated for 24 hrs by half broth dilution based checkerboard method; assay type: functional
A549 [29] = assay: Cytotoxicity against human A549 cells assessed as reduction in cell viability at 4 microg/ml incubated for 24 hrs by CCK-8 assay relative to control; assay type: toxicity, cell-based; conditions: a549, 24 h, at 4 µg/mL
A549 [30] = assay: Cytotoxicity against human A549 cells assessed as reduction in cell viability at 8 microg/ml incubated for 24 hrs by CCK-8 assay relative to control; assay type: toxicity, cell-based; conditions: a549, 24 h, at 8 µg/mL
A549 [31] = assay: Cytotoxicity against human A549 cells assessed as reduction in cell viability at 16 microg/ml incubated for 24 hrs by CCK-8 assay relative to control; assay type: toxicity, cell-based; conditions: a549, 24 h, at 16 µg/mL
A549 [32] = assay: Cytotoxicity against human A549 cells assessed as reduction in cell viability at 32 microg/ml incubated for 24 hrs by CCK-8 assay relative to control; assay type: toxicity, cell-based; conditions: a549, 24 h, at 32 µg/mL
A549 [33] = assay: Cytotoxicity against human A549 cells assessed as reduction in cell viability at 64 microg/ml incubated for 24 hrs by CCK-8 assay relative to control; assay type: toxicity, cell-based; conditions: a549, 24 h, at 64 µg/mL
A549 [34] = assay: Cytotoxicity against human A549 cells assessed as reduction in cell viability at 128 microg/ml incubated for 24 hrs by CCK-8 assay relative to control; assay type: toxicity, cell-based; conditions: a549, 24 h, at 128 µg/mL
Cryptococcus neoformans [35] = assay: Synergistic antifungal activity against Cryptococcus neoformans ATCC 32719 assessed as fractional inhibitory concentration index in presence of fluconazole incubated for 24 hrs by half broth dilution based checkerboard method; assay type: functional
Candida albicans [36] = assay: Antifungal activity against Candida albicans ATCC 76615 assessed as Polyoxin B MIC incubated for 24 hrs in presence of fluconazole by half broth dilution based checkerboard method; assay type: functional
Aspergillus flavus [37] = assay: Antifungal activity against Aspergillus flavus ATCC 16870 assessed as Polyoxin B MIC incubated for 24 hrs in presence of fluconazole by half broth dilution based checkerboard method; assay type: functional
Aspergillus fumigatus [38] = assay: Antifungal activity against Aspergillus fumigatus GIMCC 3.19 assessed as Polyoxin B MIC incubated for 24 hrs in presence of fluconazole by half broth dilution based checkerboard method; assay type: functional
Cryptococcus neoformans [39] = assay: Antifungal activity against Cryptococcus neoformans ATCC 32719 assessed as Polyoxin B MIC incubated for 24 hrs in presence of fluconazole by half broth dilution based checkerboard method; assay type: functional
Candida albicans [40] = assay: Synergistic antifungal activity against Candida albicans ATCC 76615 assessed as fractional inhibitory concentration index in presence of Polyoxin B incubated for 24 hrs by half broth dilution based checkerboard method; assay type: functional
Aspergillus flavus [41] = assay: Synergistic antifungal activity against Aspergillus flavus ATCC 16870 assessed as fractional inhibitory concentration index in presence of Polyoxin B incubated for 24 hrs by half broth dilution based checkerboard method; assay type: functional
Aspergillus fumigatus [42] = assay: Synergistic antifungal activity against Aspergillus fumigatus GIMCC 3.19 assessed as fractional inhibitory concentration index in presence of Polyoxin B incubated for 24 hrs by half broth dilution based checkerboard method; assay type: functional
Cryptococcus neoformans [43] = assay: Synergistic antifungal activity against Cryptococcus neoformans ATCC 32719 assessed as fractional inhibitory concentration index in presence of Polyoxin B incubated for 24 hrs by half broth dilution based checkerboard method; assay type: functional

O=C(/C=C/C(=O)Nc1nc2ccccc2s1)Nc1ccc2c(c1)NC(=O)C1(CCNC1=O)C2 (racemic)
inhibition (Candida tropicalis [1]): 82.5%
IC50 [2]: 104 µM
inhibition (Candida tropicalis [3]): Active
Ki [4]: 114 µM
MIC (Candida albicans [5]): 8 µg/mL (≈ 17.3 µM)
MIC (Aspergillus flavus [6]): 16 µg/mL (≈ 34.7 µM)
MIC (Aspergillus fumigatus [7]): 4 µg/mL (≈ 8.67 µM)
MIC (Cryptococcus neoformans [8]): 4 µg/mL (≈ 8.67 µM)
MIC (Candida albicans [9]): 128 µg/mL
MIC (Aspergillus flavus [10]): 128 µg/mL
MIC (Aspergillus fumigatus [11]): 64 µg/mL
MIC (Cryptococcus neoformans [12]): 64 µg/mL
MIC (Candida albicans [13]): 64 µg/mL (≈ 139 µM)
MIC (Aspergillus flavus [14]): 32 µg/mL (≈ 69.3 µM)
MIC (Aspergillus fumigatus [15]): 32 µg/mL (≈ 69.3 µM)
MIC (Cryptococcus neoformans [16]): 64 µg/mL (≈ 139 µM)
MIC (Candida albicans [17]): 64 µg/mL (≈ 139 µM)
MIC (Candida albicans [18]): 2 µg/mL
MIC (Aspergillus flavus [19]): 4 µg/mL
MIC (Aspergillus fumigatus [20]): 2 µg/mL
MIC (Cryptococcus neoformans [21]): 2 µg/mL
MIC (Candida albicans [22]): 2 µg/mL
MIC (Aspergillus flavus [23]): 2 µg/mL
MIC (Aspergillus fumigatus [24]): 4 µg/mL
MIC (Cryptococcus neoformans [25]): 4 µg/mL
fractional inhibitory concentration index (FICI) (Aspergillus fumigatus [26]): 1.5
fractional inhibitory concentration index (FICI) (Candida albicans [27]): 0.5
fractional inhibitory concentration index (FICI) (Aspergillus flavus [28]): 0.75
Activity (A549 [29]): 93.5%
Activity (A549 [30]): 90.5%
Activity (A549 [31]): 91.1%
Activity (A549 [32]): 87.9%
Activity (A549 [33]): 79.1%
Activity (A549 [34]): 68.4%
fractional inhibitory concentration index (FICI) (Cryptococcus neoformans [35]): 1
MIC (Candida albicans [36]): 2 µg/mL
MIC (Aspergillus flavus [37]): 8 µg/mL
MIC (Aspergillus fumigatus [38]): 2 µg/mL
MIC (Cryptococcus neoformans [39]): 4 µg/mL
fractional inhibitory concentration index (FICI) (Candida albicans [40]): 0.5
fractional inhibitory concentration index (FICI) (Aspergillus flavus [41]): 0.75
fractional inhibitory concentration index (FICI) (Aspergillus fumigatus [42]): 1.5
fractional inhibitory concentration index (FICI) (Cryptococcus neoformans [43]): 1

O=C(CN1CCC(C(=O)Nc2cccc3ccccc23)CC1)Nc1ccc2c(c1)NC(=O)C1(CCNC1=O)C2 (racemic)
inhibition (Candida tropicalis [1]): 84%
IC50 [2]: 99 µM
MIC (Candida albicans [5]): 16 µg/mL (≈ 30.4 µM)
MIC (Aspergillus flavus [6]): 8 µg/mL (≈ 15.2 µM)
MIC (Aspergillus fumigatus [7]): 8 µg/mL (≈ 15.2 µM)
MIC (Cryptococcus neoformans [8]): 32 µg/mL (≈ 60.9 µM)
MIC (Candida albicans [9]): 256 µg/mL
MIC (Aspergillus flavus [10]): 128 µg/mL
MIC (Aspergillus fumigatus [11]): 512 µg/mL
MIC (Cryptococcus neoformans [12]): 512 µg/mL
MIC (Candida albicans [13]): 32 µg/mL (≈ 60.9 µM)
MIC (Aspergillus flavus [14]): 64 µg/mL (≈ 122 µM)
MIC (Aspergillus fumigatus [15]): 64 µg/mL (≈ 122 µM)
MIC (Cryptococcus neoformans [16]): 64 µg/mL (≈ 122 µM)
MIC (Candida albicans [17]): 32 µg/mL (≈ 60.9 µM)
MIC (Candida albicans [18]): 16 µg/mL
MIC (Aspergillus flavus [19]): 8 µg/mL
MIC (Aspergillus fumigatus [20]): 8 µg/mL
MIC (Cryptococcus neoformans [21]): 2 µg/mL
MIC (Candida albicans [22]): 1 µg/mL
MIC (Aspergillus flavus [23]): 1.5 µg/mL
MIC (Aspergillus fumigatus [24]): 2 µg/mL
MIC (Cryptococcus neoformans [25]): 0.75 µg/mL
fractional inhibitory concentration index (FICI) (Aspergillus fumigatus [26]): 1
fractional inhibitory concentration index (FICI) (Candida albicans [27]): 0.75
fractional inhibitory concentration index (FICI) (Aspergillus flavus [28]): 0.75
fractional inhibitory concentration index (FICI) (Cryptococcus neoformans [35]): 1
MIC (Candida albicans [36]): 16 µg/mL
MIC (Aspergillus flavus [37]): 8 µg/mL
MIC (Aspergillus fumigatus [38]): 8 µg/mL
MIC (Cryptococcus neoformans [39]): 32 µg/mL
fractional inhibitory concentration index (FICI) (Candida albicans [40]): 0.75
fractional inhibitory concentration index (FICI) (Aspergillus flavus [41]): 2
fractional inhibitory concentration index (FICI) (Aspergillus fumigatus [42]): 1.5
fractional inhibitory concentration index (FICI) (Cryptococcus neoformans [43]): 1
